Test [1] concerns NCI-H441. As to the kind of experiment: In vivo combination of 224G11 and Docetaxel on NCI-H441 xenograft model. The arrangement: species or system Athymic nude mice. To be noted: D11 to D35; Docetaxel 7.5 mg/kg i.p. Here is the method:
(§1) NCI-H441 cells from ATCC were routinely cultured in RPMI 1640 medium, 10% FCS, 1% L-Glutamine. Cells were split two days before engraftment being in exponential phase of growth. Nine million NCI-H441 cells were engrafted to Athymic nude mice. […] Mice were treated i.p. either with a loading dose of 2 mg of 224G11 Mab/mouse and then twice a week with 1 mg of antibody/mouse or with 4 injections of Docetaxel (D5, D12, D19, D26) at 7.5 mg/kg. A third group administered with the combine treatment was also included. Docetaxel was given by i.p. injections. Tumor volume was measured twice a week and calculated by the formula: π/6×length×width×height and animal weights were monitored every day over the period of Docetaxel treatment. Statistical analysis was performed at each measured time using either a t-test or a Mann-Whitney test. […] Results are represented in FIG. 47.

The target in the next test is T1, c-Met-Fc (Homo sapiens, UniProt P08581).
T1 construct: c-Met extracellular domain fusion protein (10-15 g/dose/mouse) (R&D Systems, Catalog #358MT); purchased R&D Systems
T1 sequence (P08581 25-932 limits assumed): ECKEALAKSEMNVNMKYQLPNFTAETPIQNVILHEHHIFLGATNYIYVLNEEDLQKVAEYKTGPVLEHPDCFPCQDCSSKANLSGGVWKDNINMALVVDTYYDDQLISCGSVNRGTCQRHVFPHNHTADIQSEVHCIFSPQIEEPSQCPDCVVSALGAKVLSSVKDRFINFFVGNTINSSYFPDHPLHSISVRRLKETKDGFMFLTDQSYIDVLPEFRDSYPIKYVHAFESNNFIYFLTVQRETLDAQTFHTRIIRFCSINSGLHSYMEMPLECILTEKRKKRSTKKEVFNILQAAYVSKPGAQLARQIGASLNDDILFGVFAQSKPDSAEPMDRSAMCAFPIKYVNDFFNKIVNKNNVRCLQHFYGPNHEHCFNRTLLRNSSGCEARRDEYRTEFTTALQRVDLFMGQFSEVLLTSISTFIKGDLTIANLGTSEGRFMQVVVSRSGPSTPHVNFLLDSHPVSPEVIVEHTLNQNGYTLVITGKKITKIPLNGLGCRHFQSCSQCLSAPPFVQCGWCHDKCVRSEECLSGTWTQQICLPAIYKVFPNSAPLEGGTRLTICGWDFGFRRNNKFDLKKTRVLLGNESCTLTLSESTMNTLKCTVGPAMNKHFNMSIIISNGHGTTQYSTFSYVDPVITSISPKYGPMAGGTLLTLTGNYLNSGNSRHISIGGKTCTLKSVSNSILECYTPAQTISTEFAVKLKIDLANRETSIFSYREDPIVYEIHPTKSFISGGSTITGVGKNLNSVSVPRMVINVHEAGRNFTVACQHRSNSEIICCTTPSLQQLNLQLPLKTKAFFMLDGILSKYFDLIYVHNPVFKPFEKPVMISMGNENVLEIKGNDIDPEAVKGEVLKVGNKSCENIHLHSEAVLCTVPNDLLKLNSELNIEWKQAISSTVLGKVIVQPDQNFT
Briefly: Displacement of [125I]-HGF binding to immobilized c-Met. To be noted: 0.1 pM to 1 μM. On the procedure: To determine whether the anti-c-Met antibodies were able to displace HGF, binding experiments were set up. Briefly, protein A FlashPlate 96-well microplates (Perkin Elmer) were saturated with 0.5% gelatine in PBS (200 μl/well, 2 h at room temperature) before adding recombinant c-Met-Fc (R&D Systems) as a coating protein. […] of a 1 μg/ml c-Met-Fc solution in PBS were added to each well. Plates were then incubated overnight at 4° C. Free residual Protein A sites were further saturated with a non relevant hIgG (0.5 μg/well in PBS) for 2 h at room temperature. Plates were washed with PBS after each step.
For competition assays, binding of [^125I]-HGF (specific activity ˜2,000 Ci/mmol) at 200 pM to immobilized c-Met was measured in the presence of varying concentrations of the anti-c-Met monoclonal antibodies 11E1, 224G11, 223C4, 227H1 or HGF (R&D Systems) ranging from 0.1 pM to 1 μM in PBS pH 7.4. The plates were incubated at room temperature for 6 h, then counted on a Packard Top Count Microplate Scintillation Counter. Non specific binding was determined in the presence of […] of HGF. The monoclonal antibody 9G4, which is not directed at c-Met but specifically recognizes an E. coli protein, was used as mouse IgG1 isotype control.
Percent of total specific [^125I]-HGF binding was plotted as a function of ligand concentration on semilog graphs. […]
For orientation: Loss of bound radioactivity is the signal in a displacement assay; it reports binding, not function.

The subject of test [2] is NCI-H441. Briefly: In vivo combination of 224G11 and Doxorubicin on NCI-H441 xenograft model. Details: species or system Athymic nude mice. To be noted: D11 to D39; Doxorubicin 5 mg/kg i.v. Here is the method: as §1, with “growth. Ten” for “growth. Nine”, “of Doxorubicin” for “of Docetaxel”, “at 5” for “at 7.5”, “included. Doxorubicin” for “included. Docetaxel”, “by i.v.” for “by i.p.”, “FIG. 46.” for “FIG. 47.”

The subject of a further test is G55. As to conditions: glioblastoma growing independently of HGF; cited from earlier work.

With `CC(=O)O[C@@]12CO[C@@H]1C[C@H](O)[C@@]1(C)C(=O)[C@H](O)C3=C(C)[C@@H](OC(=O)[C@H](O)[C@@H](NC(=O)OC(C)(C)C)c4ccccc4)C[C@@](O)([C@@H](OC(=O)c4ccccc4)[C@H]21)C3(C)C` [Docetaxel, reference compound], in the test on NCI-H441 [1], the “anti-tumor activity compared to the control group” value was “significant anti-tumor activity”.
Take “HGF: hepatocyte growth factor (R&D Systems), c-Met ligand used as unlabeled competitor”: in the test with c-Met-Fc, the “displacement of [125I]-HGF binding to immobilized c-Met” value is on record as “fully displace”.
With `COc1cccc2c1C(=O)c1c(O)c3c(c(O)c1C2=O)C[C@@](O)(C(=O)CO)C[C@@H]3O[C@H]1C[C@H](N)[C@H](O)[C@H](C)O1` [Doxorubicin, reference compound], in the test on NCI-H441 [2], the “anti-tumor activity compared to the control group” value is “significant anti-tumor activity”.

B1: OA5D5: monovalent engineered form of 5D5 produced as a recombinant protein in E. Coli (Genentech) (antibody, chains of the INN, looked up, V domains shown)
VH: EVQLVESGGGLVQPGGSLRLSCAASGYTFTSYWLHWVRQAPGKGLEWVGMIDPSNSDTRFNPNFKDRFTISADTSKNTAYLQMNSLRAEDTAVYYCATYRSYVTPLDYWGQGTLVTVSS
VL: DIQMTQSPSSLSASVGDRVTITCKSSQSLLYTSSQKNYLAWYQQKPGKAPKLLIYWASTRESGVPSRFSGSGSGTDFTLTISSLQPEDFATYYCQQYYAYPWTFGQGTKVEIK
modifications: one-armed monovalent antibody
Take B1: the “effect on G55 tumor growth” value in the test with G55 was “no significant effect”.

(Values after patent publication US8871909B2, “Antibodies inhibiting c-Met dimerization and uses thereof” (Pierre Fabre Medicament, priority 2007, dated 2014).)
